Patent publication US9193729B2, “Inhibiting transient receptor potential ion channel TRPA1” (Cubist Pharmaceuticals, Inc., priority 2011, dated 2015)
“Also recorded” adds a separate entry of the source.

System: incisional spontaneous pain
Test: Surgical incision pain model (Brennan Surgical Model)
Type: in vivo, rat
Conditions: 60 mg/kg i.p. vs ketoprofen (2 doses of 2 mg/kg intraperitoneally)
Description: The compound of Formula (Ia), the comparator compound of Formula (III) and ketoprofen were tested by the incisional pain test method reported in Brennan et al., Pain, 1996 March; 64(3):493-501 incorporated herein by reference in its entirety. Briefly, in rats under anesthesia, a 1 cm incision through skin and underlying muscle is made in the bottom of one hind paw. The incision is sutured closed and the animals allowed to regain consciousness in their home cage before being placed on a special mesh rack. The blinded observer subjectively assesses and records each animal's pain score every 5 minutes for 1 hour. Pain scores are assigned as follows: Score of 0=Injured paw is held flat on the rack and is bearing weight (=uninjured paw); 1=Injured paw is slightly lifted from the rack but is bearing some weight; 2=Injured paw is flat but is bearing no weight, or heel is lifted high off the rack with only toes touching. At the end of each hour, pain scores are added up and the final score recorded ([…]). In a typical study the efficacy of the drug treatment is determined by comparing the cumulative guarding scores at 1-2 and 3-4 hours following surgical injury to the cumulative guarding scores of animals that received the vehicle.

C[C@H]1CCCN1c1ncc(-c2cccc(NC(=O)Cn3cnc4c3c(=O)n(C)c(=O)n4C)n2)cn1 [Formula (Ia)]
reduction of spontaneous pain compared with ketoprofen: equivalent to ketoprofen; also recorded: better than ketoprofen
